Assay results published in patent US10888544B2, “Methods for treating Gaucher disease” (Genzyme Corporation, priority 2017, dated 2021).

Assay: Safety evaluation in the renal impairment single dose study (Example 3)
Type: in vivo, human
Protocol: The safety evaluation was based on the review of the individual values (clinically significant abnormalities) and descriptive statistics (summary tables). All safety analyses were performed using the safety population and based on the on-treatment phase (defined as the start time of investigational medicinal product [IMP] administration up to Day 3 visit). For laboratory, vital sign, and ECG data, the Potentially Clinically Significant Abnormalities (PCSAs) were analyzed using PCSA list (Version 3.0, 24 May 2014). Electrocardiogram parameters were obtained from automatic reading of the 12-lead ECGs and were analyzed as raw parameter value and change from baseline. For vital signs, raw data and changes from baseline were summarized using descriptive statistics by population group and time of measurement. All individual data for biochemistry, hematology, and qualitative urinary tests were listed.
Vital signs and ECG readings were analyzed as raw parameter value and change from baseline.
Adverse events were coded according to the Medical Dictionary for Regulatory Activities (MedDRA, version 19.1). They were classified into pre-defined standard categories according to chronological criteria: • Pretreatment adverse events: AEs that occurred, worsened (according to the Investigator's opinion) or became serious during the pretreatment phase (defined as the time between the signature of the informed consent and IMP administration [excluded]); • Treatment-emergent adverse events (TEAEs): AEs that occurred, worsened or became serious during the on-treatment phase; • Posttreatment adverse events: AEs that occurred, worsened or became serious during the posttreatment phase (defined as starting after the Day 3 visit and ending with EOS).
The number and percentage of subjects with TEAEs were listed by population group, primary system-organ class (SOC), preferred term (PT), and AE diagnosis.

[1] = renal impairment study, single dose

CCCCCCCC(=O)N[C@H](CN1CCCC1)[C@H](O)c1ccc2c(c1)OCCO2 [eliglustat, N-((1R,2R)-1-(2,3-dihydrobenzo[b][1,4]dioxin-6-yl)-1-hydroxy-3-(pyrrolidin-1-yl)propan-2-yl)octanamide]
Total number of mild TEAEs observed (in 1 subject, considered related to study drug: fatigue in a healthy subject): one
Deaths or withdrawals due to AEs [1]: no deaths or withdrawals due to AEs
Serious adverse events [1]: No serious adverse events were reported
Treatment emergent PCSA (laboratory values, vital signs, ECGs) [1]: no treatment emergent PCSA that were clinically relevant
